Data from patent publication US8263596B2, “Kinase inhibitors and method of treating cancer” (University Health Network, priority 2010, dated 2012).
Structures can show the parent of a compound that is named as a salt. Where two headings read alike, the source gives them in different places.

Assays:
[1] = target: T1, Aurora A (Homo sapiens, UniProt O14965); assay: Aurora A inhibition assay (Z-Lyte); assay type: biochemical
T1 sequence (O14965 1-403): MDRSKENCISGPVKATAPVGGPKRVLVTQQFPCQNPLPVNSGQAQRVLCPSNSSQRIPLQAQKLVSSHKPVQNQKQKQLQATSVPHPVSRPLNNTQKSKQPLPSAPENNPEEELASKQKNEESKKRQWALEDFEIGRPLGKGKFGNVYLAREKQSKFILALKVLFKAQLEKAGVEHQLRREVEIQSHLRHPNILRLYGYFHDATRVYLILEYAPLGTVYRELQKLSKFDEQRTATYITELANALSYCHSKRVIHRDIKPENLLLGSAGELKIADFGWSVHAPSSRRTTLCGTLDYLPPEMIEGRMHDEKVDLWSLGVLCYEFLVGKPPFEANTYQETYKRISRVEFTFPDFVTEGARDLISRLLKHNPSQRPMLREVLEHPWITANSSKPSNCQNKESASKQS

[2] = system: A549 lung cancer cells; assay type: cell-based; conditions: Homo sapiens, A549, 120 h, read-out: Cell Line GI50 Range A-549
[3] = system: SW620 colon cancer cells; assay type: cell-based; conditions: Homo sapiens, SW-620, 120 h, read-out: Cell Line GI50 Range SW-620
[4] = target: T2, human PLK4 (Homo sapiens, UniProt O00444); assay: PLK4 inhibition assay (indirect ELISA); assay type: biochemical
T2 construct: amino terminal GST fusion of residues 1-391 of human PLK4; made in house; host or cells: E. coli
T2 sequence (O00444 1-391): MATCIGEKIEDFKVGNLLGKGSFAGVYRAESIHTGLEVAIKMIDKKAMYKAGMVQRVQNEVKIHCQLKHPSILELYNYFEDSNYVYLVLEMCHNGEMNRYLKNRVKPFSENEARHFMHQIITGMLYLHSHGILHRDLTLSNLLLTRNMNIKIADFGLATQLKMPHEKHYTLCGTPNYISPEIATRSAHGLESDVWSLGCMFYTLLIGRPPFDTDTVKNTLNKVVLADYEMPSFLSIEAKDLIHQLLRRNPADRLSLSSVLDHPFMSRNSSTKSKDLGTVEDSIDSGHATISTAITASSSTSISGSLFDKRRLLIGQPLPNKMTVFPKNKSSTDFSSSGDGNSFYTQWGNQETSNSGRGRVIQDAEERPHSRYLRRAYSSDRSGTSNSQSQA
Method: PLK4 activity was measured using an indirect ELISA detection system. […] The colourimetric reaction was allowed to continue for 5 minutes, followed by addition of stop solution (0.5 N sulphuric acid), and quantified by detection at 450 nm with either a monochromatic or filter based plate reader (Molecular Devices M5 or Beckman DTX880, respectively).
Compounds were pre-incubated in the presence of enzyme for 15 minutes prior to addition of ATP and the activity remaining quantified using the above described activity assay. […] The IC50 value was determined using a non-linear 4 point logistic curve fit (XLfit4, IDBS) with the formula; (A+(B/(1+((x/C)^D)))), where A=background value, B=range, C=inflection point, D=curve fit parameter.

[5] = target: Aurora B (Homo sapiens, UniProt Q96GD4); assay: Aurora B inhibition assay (Z-Lyte); assay type: biochemical; conditions: read-out: IC50 Ranges Aurora B
Chain of Aurora B (Q96GD4 whole entry): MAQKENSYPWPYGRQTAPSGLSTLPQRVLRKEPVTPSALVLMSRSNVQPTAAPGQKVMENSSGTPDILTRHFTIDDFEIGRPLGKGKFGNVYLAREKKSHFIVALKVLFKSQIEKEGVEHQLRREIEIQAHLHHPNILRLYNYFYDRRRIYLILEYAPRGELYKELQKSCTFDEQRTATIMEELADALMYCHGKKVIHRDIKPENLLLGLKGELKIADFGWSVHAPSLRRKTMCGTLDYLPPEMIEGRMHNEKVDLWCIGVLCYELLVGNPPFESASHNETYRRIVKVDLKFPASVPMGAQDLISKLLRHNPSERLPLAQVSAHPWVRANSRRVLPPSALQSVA
Method: Aurora B inhibition was determined using the Z-Lyte assay kit from Invitrogen. […] The % inhibition values were determined according to the manufacturer's directions and IC50 values were obtained using a non-linear 4 point logistic curve fit (XLfit4, IDBS)

| SMILES | GI50 [2] | GI50 [3] | IC50 [5] | IC50 ([4]; read-out: IC50 Ranges PLK4) | other results |
| --- | --- | --- | --- | --- | --- |
| COc1ccc2c(c1)[C@]1(C[C@H]1c1ccc3c(/C=C/c4cccc(CN(C)C)c4)n[nH]c3c1)C(=O)N2 [Example A134, (1R,2S)-2-(3-(3-((dimethylamino)methyl)styryl)-1H-indazol-6-yl)-5′-methoxyspiro[cyclopropane-1,3′-indolin]-2′-one 2,2,2-trifluoroacetate] | – | – | – | – | IC50 [1]: 100 to 1000 nM |
| CCc1ccc2c(c1)[C@]1(C[C@H]1c1ccc3c(-c4ccc(N5CCN(C)CC5)cc4)n[nH]c3c1)C(=O)N2 (relative stereo) [Example A142, (1R*,2S*)-5′-ethyl-2-(3-(4-(4-methylpiperazin-1-yl)phenyl)-1H-indazol-6-yl)spiro[cyclopropane-1,3′-indolin]-2′-one 2,2,2-trifluoroacetate] | – | – | – | – | inhibition at 1 µM [1]: < 50% |
| CN1C(=O)[C@@]2(C[C@H]2c2ccc3c(/C=C/c4ccc(N5CCNCC5)cc4)n[nH]c3c2)c2ccccc21 [Example A90, (1R,2S)-(E)-1′-methyl-2-(3-(4-(piperazin-1-yl)styryl)-1H-indazol-6-yl)spiro[cyclopropane-1,3′-indolin]-2′-one hydrochloride] | < 100 nM | < 100 nM | – | – | – |
| CN1CCN(c2ccc(-c3n[nH]c4cc([C@@H]5C[C@@]56C(=O)Nc5ccccc56)ccc34)cn2)CC1 (racemic) [Example A18, (1R*,2S*)-2-(3-(6-(4-Methylpiperazin-1-yl)pyridin-3-yl)-1H-indazol-6-yl)spiro[cyclopropane-1,3′-indolin]-2′-one] | – | – | < 100 nM | – | IC50 [4]: < 100 nM; IC50 [1]: 100 to 1000 nM |
| COc1ccc2c(c1)[C@]1(C[C@H]1c1ccc3c(-c4ccc(C5CCNCC5)cc4)n[nH]c3c1)C(=O)N2 (relative stereo) [Example A122, (1R*,2S*)-5′-methoxy-2-(3-(4-(piperidin-4-yl)phenyl)-1H-indazol-6-yl)spiro[cyclopropane-1,3′-indolin]-2′-one 2,2,2-trifluoroacetate] | < 100 nM | < 100 nM | – | – | – |
| COc1ccc2c(c1)[C@]1(C[C@H]1c1ccc3c(/C=C/c4ccc(C(=O)N5CCN(C)CC5)cc4)n[nH]c3c1)C(=O)N2 (relative stereo) [Example A179, (1R*,2S*)-(E)-5′-methoxy-2-(3-(4-(4-methylpiperazine-1-carbonyl)styryl)-1H-indazol-6-yl)spiro[cyclopropane-1,3′-indolin]-2′-one 2,2,2-trifluoroacetate] | – | – | < 100 nM | < 100 nM | IC50 [1]: < 100 nM |
| COc1ccc2c(c1)[C@]1(C[C@H]1c1ccc3c(-c4ccc(N5CCN(C)CC5)cc4)n[nH]c3c1)C(=O)N2 (relative stereo) [Example A38, (1R*,2S*)-5′-Methoxy-2-(3-(4-(4-methylpiperazin-1-yl)phenyl)-1H-indazol-6-yl)spiro[cyclopropane-1,3′-indolin]-2′-one] | – | 100 to 1000 nM | < 100 nM | – | – |
| COc1ccc2c(c1)[C@]1(C[C@H]1c1ccc3c(-c4ccc(N5CCC(O)CC5)nc4)n[nH]c3c1)C(=O)N2 (relative stereo) [Example A117, (1R*,2S*)-2-(3-(6-(4-hydroxypiperidin-1-yl)pyridin-3-yl)-1H-indazol-6-yl)-5′-methoxyspiro[cyclopropane-1,3′-indolin]-2′-one 2,2,2-trifluoroacetate] | 1000 to 10000 nM | > 10000 nM | 100 to 1000 nM | – | – |
| COc1ccc2c(c1)[C@]1(CC1c1ccc3c(-c4ccc(N5CCN(C)CC5)nc4)n[nH]c3c1)C(=O)N2 (mixture of isomers) [Example A14, (1R*,2S*)-5′-Methoxy-2-(3-(6-(4-methylpiperazin-1-yl)pyridin-3-yl)-1H-indazol-6-yl)spiro[cyclopropane-1,3′-indolin]-2′-one dihydrochloride] | < 100 nM | < 100 nM | – | – | – |
| Cc1ccc2c(c1)[C@]1(C[C@H]1c1ccc3c(/C=C/c4ccc(CN(C)C)cc4)n[nH]c3c1)C(=O)N2 (relative stereo) [Example A169, (1R*,2S*)-(E)-2-(3-(4-((dimethylamino)methyl)styryl)-1H-indazol-6-yl)-5′-methylspiro[cyclopropane-1,3′-indolin]-2′-one 2,2,2-trifluoroacetate] | < 100 nM | – | – | – | – |
| CN(C)Cc1cccc(/C=C/c2n[nH]c3cc([C@@H]4C[C@@]45C(=O)Nc4ccccc45)ccc23)c1 (relative stereo) [Example A162, (1R*,2S*)-(E)-2-(3-(3-((dimethylamino)methyl)styryl)-1H-indazol-6-yl) spiro[cyclopropane-1,3′-indolin]-2′-one 2,2,2-trifluoroacetate] | – | – | < 100 nM | < 100 nM | – |
| COc1ccc2c(c1)[C@]1(C[C@H]1c1ccc3c(/C=C/c4ccc(N5CCOCC5)nc4)n[nH]c3c1)C(=O)N2 (relative stereo) [Example A213, (1R*,2S*)-5′-methoxy-2-(3-((E)-2-(6-morpholinopyridin-3-yl)vinyl)-1H-indazol-6-yl)spiro[cyclopropane-1,3′-indolin]-2′-one 2,2,2-trifluoroacetate] | – | – | < 100 nM | < 100 nM | – |
| COCCN1C(=O)[C@@]2(C[C@H]2c2ccc3c(/C=C/c4ccc(CN(C)C)cc4)n[nH]c3c2)c2ccccc21 (relative stereo) [Example A180, (1R*,2S*)-(E)-2-(3-(4-((dimethylamino)methyl)styryl)-1H-indazol-6-yl)-1′-(2-methoxyethyl)spiro[cyclopropane-1,3′-indolin]-2′-one 2,2,2-trifluoroacetate] | – | – | – | – | IC50 [1]: < 100 nM |
| COc1ccc2c(c1)[C@]1(C[C@H]1c1ccc3c(-c4ccc(C(=O)N5CCN(C)CC5)cc4)n[nH]c3c1)C(=O)N2 (relative stereo) [Example A148, (1R*,2S*)-5′-methoxy-2-(3-(4-(4-methylpiperazine-1-carbonyl)phenyl)-1H-indazol-6-yl)spiro[cyclopropane-1,3′-indolin]-2′-one 2,2,2-trifluoroacetate] | 100 to 1000 nM | 1000 to 10000 nM | 100 to 1000 nM | < 100 nM | – |
| COc1cc2c(cc1OC)[C@]1(C[C@H]1c1ccc3c(/C=C/c4ccc(CN(C)C)cc4)n[nH]c3c1)C(=O)N2 (relative stereo) [Example A168, (1R*,2S*)-(E)-2-(3-(4-((dimethylamino)methyl)styryl)-1H-indazol-6-yl)-5′,6′-dimethoxyspiro[cyclopropane-1,3′-indolin]-2′-one 2,2,2-trifluoroacetate] | – | – | < 100 nM | < 100 nM | – |
| COc1ccc2c(c1)[C@]1(C[C@H]1c1ccc3c(/C=C/c4ccc(CN5CCOCC5)s4)n[nH]c3c1)C(=O)N2 [Example A105, (1R,2S)-5′-methoxy-2-(3-((E)-2-(5-(morpholinomethyl)thiophen-2-yl)vinyl)-1H-indazol-6-yl)spiro[cyclopropane-1,3′-indolin]-2′-one hydrochloride] | < 100 nM | < 100 nM | – | – | – |
| O=C1Nc2ccccc2[C@]12CC2c1ccc2cn[nH]c2c1 (mixture of isomers) [Example A2, (1R*,2S*)-2-(1H-indazol-6-yl)spiro[cyclopropane-1,3′-indolin]-2′-one] | > 10000 nM | > 10000 nM | – | – | – |
| COc1ccc2c(c1)[C@]1(C[C@H]1c1ccc3c(C#Cc4ccc(C=O)cc4)n[nH]c3c1)C(=O)N2 (relative stereo) [Example A137, 4-((6-((1R*,2S*)-5′-methoxy-2′-oxospiro[cyclopropane-1,3′-indoline]-2-yl)-1H-indazol-3-yl)ethynyl)benzaldehyde] | – | – | < 100 nM | < 100 nM | – |
| COc1ccc2c(c1)[C@]1(C[C@H]1c1ccc3c(/C=C/c4cccc(CN5CCOCC5)c4)n[nH]c3c1)C(=O)N2 [Example A132, (1R,2S)-5′-methoxy-2-(3-(3-(morpholinomethyl)styryl)-1H-indazol-6-yl)spiro[cyclopropane-1,3′-indolin]-2′-one 2,2,2-trifluoroacetate] | – | – | – | – | IC50 [1]: 100 to 1000 nM |
| COc1ccc2c(c1)[C@]1(CC1c1ccc3c(/C=C/c4cc(F)c(CN(C)C)c(F)c4)n[nH]c3c1)C(=O)N2 (stereo in doubt) [Example A215, (1R*,2S*)-(E)-2-(3-(4-((dimethylamino)methyl)-3,5-difluorostyryl)-1H-indazol-6-yl)-5′-methoxyspiro[cyclopropane-1,3′-indolin]-2′-one 2,2,2-trifluoro acetate] | – | – | < 100 nM | < 100 nM | – |
| COc1ccc2c(c1)[C@]1(C[C@H]1c1ccc3c(-c4ccc(CN5CCOCC5)cc4)n[nH]c3c1)C(=O)N2 (relative stereo) [Example A139, (1R*,2S*)-5′-methoxy-2-(3-(4-(morpholinomethyl)phenyl)-1H-indazol-6-yl)spiro[cyclopropane-1,3′-indolin]-2′-one 2,2,2-trifluoroacetate] | – | – | < 100 nM | < 100 nM | – |
